Columns and labels:
[1] = molecular target: T1, Histamine H3 receptor (Homo sapiens, UniProt Q9Y5N1); experiment: Displacement of [3H]NAMH from human full length histamine H3 receptor expressed in rat C6 cells; format: cell-based
[2] = molecular target: T2, Histamine H3 receptor (Rattus norvegicus, UniProt Q9QYN8); experiment: Displacement of [3H]NAMH from histamine H3 receptor in rat cortex
[3] = Drug level in rat blood at 1 mg/kg, ip after 5 hrs; format: ADME, organism-based; design: dose 1 mg/kg, route intraperitoneal; settings: read-out: Drug uptake
[4] = Plasma concentration in rat at 1 mg/kg, ip after 1 hr; format: ADME, organism-based; design: dose 1 mg/kg, route intraperitoneal
[5] = molecular target: T3, Alpha-2A adrenergic receptor (Homo sapiens, UniProt P08913); experiment: Displacement of [3H]rauwolscine from human adrenergic alpha 2C10 receptor expressed in mouse LTK- cells; format: cell-based
T3 sequence (P08913 whole entry): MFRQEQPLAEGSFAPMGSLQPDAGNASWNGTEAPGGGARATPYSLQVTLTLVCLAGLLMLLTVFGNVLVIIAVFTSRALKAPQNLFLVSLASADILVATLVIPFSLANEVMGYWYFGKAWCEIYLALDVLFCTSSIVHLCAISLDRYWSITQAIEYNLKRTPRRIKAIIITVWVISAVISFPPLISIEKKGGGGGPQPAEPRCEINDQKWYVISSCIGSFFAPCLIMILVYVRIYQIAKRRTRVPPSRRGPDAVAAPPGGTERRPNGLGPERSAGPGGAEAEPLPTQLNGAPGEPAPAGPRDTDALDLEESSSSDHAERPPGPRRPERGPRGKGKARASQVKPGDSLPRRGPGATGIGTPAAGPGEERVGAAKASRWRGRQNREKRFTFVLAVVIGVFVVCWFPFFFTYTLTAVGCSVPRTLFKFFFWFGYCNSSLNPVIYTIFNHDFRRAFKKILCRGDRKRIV

[6] = molecular target: Histamine H3 receptor (Cavia porcellus, UniProt Q9JI35); experiment: Antagonist activity at histamine H3 receptor in guinea pig ileum assessed as inhibition of (R)-alpha-methylhistamine-induced response
Chain of Histamine H3 receptor (Cavia porcellus, UniProt Q9JI35) (Q9JI35 whole entry): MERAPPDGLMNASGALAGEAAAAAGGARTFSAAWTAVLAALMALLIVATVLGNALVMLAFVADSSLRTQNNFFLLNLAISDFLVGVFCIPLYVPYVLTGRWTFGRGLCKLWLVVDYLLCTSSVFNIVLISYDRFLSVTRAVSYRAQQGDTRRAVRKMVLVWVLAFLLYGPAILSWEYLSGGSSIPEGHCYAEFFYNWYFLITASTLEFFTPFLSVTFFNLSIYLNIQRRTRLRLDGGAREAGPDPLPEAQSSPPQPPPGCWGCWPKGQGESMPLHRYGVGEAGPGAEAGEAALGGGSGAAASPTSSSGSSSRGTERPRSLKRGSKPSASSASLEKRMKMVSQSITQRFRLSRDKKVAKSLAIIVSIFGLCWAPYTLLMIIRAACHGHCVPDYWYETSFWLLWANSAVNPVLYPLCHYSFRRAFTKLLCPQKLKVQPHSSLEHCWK

[7] = Drug level in rat brain at 1 mg/kg, ip after 1 hr; format: ADME, organism-based; design: dose 1 mg/kg, route intraperitoneal; settings: read-out: Drug uptake
[8] = Drug level in rat brain at 1 mg/kg, ip after 5 hrs; format: ADME, organism-based; design: dose 1 mg/kg, route intraperitoneal; settings: read-out: Drug uptake
[9] = Drug level in rat blood at 1 mg/kg, ip after 1 hr; format: ADME, organism-based; design: dose 1 mg/kg, route intraperitoneal; settings: read-out: Drug uptake
[10] = Displacement of [3H]LY278584 from 5HT1 receptor in rat frontal cortex; format: tissue-based
[11] = molecular target: T2, Histamine H3 receptor; experiment: Displacement of [3H]NAMH from rat full length histamine H3 receptor expressed in rat C6 cells; format: cell-based
[12] = Plasma concentration in rat at 1 mg/kg, ip after 24 hrs; format: ADME, organism-based; design: dose 1 mg/kg, route intraperitoneal
[13] = molecular target: T1, Histamine H3 receptor; settings: HEK293
[14] = Ratio of drug level in brain to plasma at 1 mg/kg, ip after 1 hr; format: ADME, organism-based; design: dose 1 mg/kg, route intraperitoneal; settings: rat
[15] = Ratio of drug level in brain to plasma at 1 mg/kg, ip after 5 hrs; format: ADME, organism-based; design: dose 1 mg/kg, route intraperitoneal; settings: rat
[16] = Displacement of [3H]LY278584 from 5HT3 receptor in rat frontal cortex; format: tissue-based
[17] = molecular target: Histamine H2 receptor (Homo sapiens, UniProt P25021); experiment: Displacement of [3H]tiotidine from human histamine H2 receptor; settings: read-out: pKi (converted)
Chain of Histamine H2 receptor (P25021 whole entry): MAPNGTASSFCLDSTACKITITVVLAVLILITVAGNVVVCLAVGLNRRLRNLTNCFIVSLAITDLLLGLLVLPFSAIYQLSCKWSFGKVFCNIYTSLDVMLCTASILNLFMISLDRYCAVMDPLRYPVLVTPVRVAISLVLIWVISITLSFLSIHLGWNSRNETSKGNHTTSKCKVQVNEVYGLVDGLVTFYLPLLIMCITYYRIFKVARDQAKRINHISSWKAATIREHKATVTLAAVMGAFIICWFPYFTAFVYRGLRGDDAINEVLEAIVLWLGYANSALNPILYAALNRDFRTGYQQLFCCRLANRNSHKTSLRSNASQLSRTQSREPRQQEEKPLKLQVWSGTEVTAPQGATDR

[18] = Plasma concentration in rat at 1 mg/kg, ip after 5 hrs; format: ADME, organism-based; design: dose 1 mg/kg, route intraperitoneal
[19] = molecular target: T1, Histamine H3 receptor; experiment: Antagonist activity at human full length histamine H3 receptor expressed in HEK293 cells assessed as inhibition of (R)-alpha-methylhistamine-induced intracellular calcium release by FLIPR; format: functional, cell-based
[20] = molecular target: Histamine H1 receptor (Homo sapiens, UniProt P35367); experiment: Displacement of [3H]mepyramine from human histamine H1 receptor; settings: read-out: pKi (converted)
Chain of Histamine H1 receptor (P35367 whole entry): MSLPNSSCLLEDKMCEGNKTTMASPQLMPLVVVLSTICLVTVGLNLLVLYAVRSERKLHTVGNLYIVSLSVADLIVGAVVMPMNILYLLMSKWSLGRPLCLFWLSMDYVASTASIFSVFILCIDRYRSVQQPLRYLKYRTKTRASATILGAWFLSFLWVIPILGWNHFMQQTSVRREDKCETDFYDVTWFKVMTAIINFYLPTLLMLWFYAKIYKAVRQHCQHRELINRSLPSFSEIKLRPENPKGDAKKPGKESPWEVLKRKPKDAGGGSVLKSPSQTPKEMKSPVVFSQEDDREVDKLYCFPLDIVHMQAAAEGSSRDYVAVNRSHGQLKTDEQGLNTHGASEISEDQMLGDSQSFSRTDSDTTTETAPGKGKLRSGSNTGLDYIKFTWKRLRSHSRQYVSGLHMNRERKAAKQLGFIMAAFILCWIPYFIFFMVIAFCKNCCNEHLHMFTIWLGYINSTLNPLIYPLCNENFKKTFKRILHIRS

[21] = Displacement of [3H]LY278584 from 5HT2 receptor in rat frontal cortex; format: tissue-based
[22] = molecular target: T1, Histamine H3 receptor; experiment: Displacement of [3H]NAMH from histamine H3 receptor in human cortex
[23] = Drug level in rat brain at 1 mg/kg, ip after 24 hrs; format: ADME, organism-based; design: dose 1 mg/kg, route intraperitoneal; settings: read-out: Drug uptake
[24] = Ratio of drug level in brain to plasma at 1 mg/kg, ip after 24 hrs; format: ADME, organism-based; design: dose 1 mg/kg, route intraperitoneal; settings: rat
[25] = Drug level in rat blood at 1 mg/kg, ip after 24 hrs; format: ADME, organism-based; design: dose 1 mg/kg, route intraperitoneal; settings: read-out: Drug uptake
[26] = molecular target: T1, Histamine H3 receptor; settings: C6
[27] = molecular target: Histamine H4 receptor (Homo sapiens, UniProt Q9H3N8); experiment: Displacement of [3H]histamine from human histamine H4 receptor expressed in HEK cells; format: cell-based, HEK293; settings: read-out: pKi (converted)
Chain of Histamine H4 receptor (Q9H3N8 whole entry): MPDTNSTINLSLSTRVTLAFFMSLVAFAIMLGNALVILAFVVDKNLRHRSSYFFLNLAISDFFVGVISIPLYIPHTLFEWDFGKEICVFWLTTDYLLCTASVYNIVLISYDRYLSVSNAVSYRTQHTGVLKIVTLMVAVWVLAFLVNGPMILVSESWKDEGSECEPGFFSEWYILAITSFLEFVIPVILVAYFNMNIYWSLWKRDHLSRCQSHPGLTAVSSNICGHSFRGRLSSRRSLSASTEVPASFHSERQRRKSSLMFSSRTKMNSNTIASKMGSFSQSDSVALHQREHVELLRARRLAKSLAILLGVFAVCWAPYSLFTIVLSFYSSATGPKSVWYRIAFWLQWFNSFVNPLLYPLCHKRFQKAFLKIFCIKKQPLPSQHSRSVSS

[28] = Selectivity ratio for human adrenergic alpha 2C4 receptor over human H3 receptor
[29] = molecular target: T4, Alpha-2C adrenergic receptor (Homo sapiens, UniProt P18825); experiment: Displacement of [3H]rauwolscine from human adrenergic alpha 2C4 receptor expressed in mouse LTK- cells; format: cell-based
T4 sequence (P18825 whole entry): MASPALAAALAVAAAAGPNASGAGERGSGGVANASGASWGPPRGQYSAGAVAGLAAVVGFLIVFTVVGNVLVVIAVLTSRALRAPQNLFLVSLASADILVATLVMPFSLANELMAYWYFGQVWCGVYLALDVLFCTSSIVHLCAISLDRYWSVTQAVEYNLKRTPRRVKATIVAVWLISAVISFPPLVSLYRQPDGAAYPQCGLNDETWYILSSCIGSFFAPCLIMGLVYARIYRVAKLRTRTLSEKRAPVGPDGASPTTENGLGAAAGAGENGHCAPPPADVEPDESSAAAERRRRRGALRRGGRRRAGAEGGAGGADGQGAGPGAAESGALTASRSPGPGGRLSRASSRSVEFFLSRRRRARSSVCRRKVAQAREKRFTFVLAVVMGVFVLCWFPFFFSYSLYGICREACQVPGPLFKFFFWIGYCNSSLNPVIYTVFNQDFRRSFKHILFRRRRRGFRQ

[30] = molecular target: Histamine H3 receptor (Rattus norvegicus) (UniProt Q9QYN8); experiment: Antagonist activity at rat full length histamine H3 receptor expressed in HEK cells assessed as inhibition of forskolin-induced cAMP accumulation by SPA; settings: HEK293
Chain of Histamine H3 receptor (Rattus norvegicus) (Q9QYN8 whole entry): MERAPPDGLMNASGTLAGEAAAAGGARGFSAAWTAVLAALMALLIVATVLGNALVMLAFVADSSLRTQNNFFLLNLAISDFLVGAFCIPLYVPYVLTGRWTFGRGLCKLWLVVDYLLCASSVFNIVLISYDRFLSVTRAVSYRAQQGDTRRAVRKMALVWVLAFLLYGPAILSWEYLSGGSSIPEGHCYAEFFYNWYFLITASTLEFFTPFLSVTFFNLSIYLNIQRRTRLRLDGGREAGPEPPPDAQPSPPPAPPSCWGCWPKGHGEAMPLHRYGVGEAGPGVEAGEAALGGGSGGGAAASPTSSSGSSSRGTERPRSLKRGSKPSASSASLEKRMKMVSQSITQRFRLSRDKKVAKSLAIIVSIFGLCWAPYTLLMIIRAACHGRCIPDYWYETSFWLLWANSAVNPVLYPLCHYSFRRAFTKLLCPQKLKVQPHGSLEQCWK

[31] = system: Rattus norvegicus; experiment: Toxicity in rat assessed as CNS side effects at 1.3 to 13 mg/kg, ip; format: organism-based; design: dose 1.3-13 mg/kg, route intraperitoneal; settings: in vivo
[32] = molecular target: Histamine H3 receptor (Rattus norvegicus) (UniProt Q9QYN8); experiment: Antagonist activity at rat full length histamine H3 receptor expressed in rat C6 cells assessed as inhibition of [35S]gammaGTP binding relative to control; format: cell-based
[33] = molecular target: Histamine H3 receptor (Rattus norvegicus) (UniProt Q9QYN8); experiment: Antagonist activity at rat full length histamine H3 receptor assessed as inhibition of (R)-alpha-methylhistamine-induced intracellular calcium release by FLIPR; format: functional, cell-based
[34] = Oral bioavailability in rat; format: ADME, organism-based; settings: in vivo

T1 sequence (Q9Y5N1 whole entry): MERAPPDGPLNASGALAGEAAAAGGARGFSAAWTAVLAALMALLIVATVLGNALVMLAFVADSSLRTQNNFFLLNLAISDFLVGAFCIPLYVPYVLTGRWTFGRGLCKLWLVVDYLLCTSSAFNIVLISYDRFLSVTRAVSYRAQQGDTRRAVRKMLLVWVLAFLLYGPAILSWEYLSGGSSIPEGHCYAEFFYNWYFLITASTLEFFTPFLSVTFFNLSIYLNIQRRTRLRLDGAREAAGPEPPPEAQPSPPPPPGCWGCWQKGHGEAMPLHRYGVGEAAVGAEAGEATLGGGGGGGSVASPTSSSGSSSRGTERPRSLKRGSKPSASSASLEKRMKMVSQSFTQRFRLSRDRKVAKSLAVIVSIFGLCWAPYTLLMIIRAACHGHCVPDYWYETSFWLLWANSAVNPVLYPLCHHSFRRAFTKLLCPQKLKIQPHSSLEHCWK
T2 sequence (Q9QYN8 whole entry): as the sequence (Q9QYN8 whole entry) above

## C[C@H]1[C@H]2CC[C@H]3[C@@H]4CC=C5C[C@@H](N(C)C(=O)C6CC6)CC[C@]5(C)[C@H]4CC[C@]23CN1C
[1]
  Ki: 0.0603 µM
[2]; read-out: Ki
  Ki: 0.38 µM

## CC(=O)N[C@@H](CC(C)C)C(=O)N(C)[C@H]1CC[C@@]2(C)C(=CC[C@H]3[C@@H]4CC[C@@H]5[C@H](C)N(C)C[C@@]54CC[C@@H]32)C1
[1]
  Ki: 0.00162 µM
[2]; read-out: Ki
  Ki: 0.00676 µM

## C[C@H]1[C@H]2CC[C@H]3[C@@H]4CC=C5C[C@@H](N(C)c6ccc(C#N)cc6)CC[C@]5(C)[C@H]4CC[C@]23CN1C
[1]
  Ki: 0.00166 µM
[2]; read-out: Ki
  Ki: 0.024 µM

## C[C@H]1[C@H]2CC[C@H]3[C@@H]4CC=C5C[C@@H](N(C)C)CC[C@]5(C)[C@H]4CC[C@]23CN1C [CONESSINE]
[3]
  concentration at 5 h: 306 ng/mL
[4]
  concentration at 1 h: 148 ng/mL
[5]
  Ki: 0.661 µM
[6]
  Kb: 0.282 µM
[1]
  Ki: 0.00537 µM
[7]
  concentration at 1 h: 6570 ng/g
[8]
  concentration at 5 h: 6800 ng/g
[9]
  concentration at 1 h: 444 ng/mL
[10]
  pKi: 5.72
[11]; read-out: pKi (converted)
  Ki: 0.0123 µM
[12]
  concentration at 24 h: 37 ng/mL
[13]
  pKb: 7.96
[14]
  Kp at 1 h: 46
[15]
  Kp at 5 h: 95.4
[16]
  pKi: < 5
[17]
  Ki: > 10 µM
[18]
  concentration at 5 h: 89 ng/mL
[19]
  pKb: 8.08
[20]
  Ki: > 10 µM
[21]
  pKi: < 5
[22]
  Ki: 0.00347 µM
[23]
  concentration at 24 h: 4140 ng/g
[24]
  Kp at 24 h: 114
[25]
  concentration at 24 h: 102 ng/mL
[2]; read-out: pKi (converted)
  Ki: 0.0245 µM
[26]
  pKb: 6.14
[27]
  Ki: > 10 µM
[28]
  Selectivity ratio: 2
[29]
  Ki: 0.0106 µM
[30]
  pKb: 6.99
[31]
  Activity: Non-toxic

## S=C(NC1CCCCC1)N1CCC(c2cnc[nH]2)CC1 [THIOPERAMIDE]
[6]
  Kb: 0.00363 µM
[32]
  pKb: 8.13
[10]
  pKi: 4.95
[33]
  pKb: 9.11
[13]
  pKb: 7.39
[16]
  pKi: 5.64
[19]
  pKb: 6.82
[21]
  pKi: 5.25
[2]; read-out: pKi (converted)
  Ki: 0.00708 µM
[26]
  pKb: 6.1
[30]
  pKb: 7.61

## C[C@H]1[C@H]2CC[C@H]3[C@@H]4CC=C5C[C@@H](N(C)C(=O)OCC(Cl)(Cl)Cl)CC[C@]5(C)[C@H]4CC[C@]23CN1C
[1]
  Ki: 0.0197 µM
[11]; read-out: Ki
  Ki: 0.00791 µM

## COC(=O)N(C)[C@H]1CC[C@@]2(C)C(=CC[C@H]3[C@@H]4CC[C@@H]5[C@H](C)N(C)C[C@@]54CC[C@@H]32)C1
[1]
  Ki: 0.0603 µM
[2]; read-out: Ki
  Ki: 0.257 µM

## O=C(c1ccc(OCCCc2cnc[nH]2)cc1)C1CC1 [CIPROXIFAN]
[2]; read-out: pKi (converted)
  Ki: 0.000631 µM

## C[C@H]1[C@H]2CC[C@H]3[C@@H]4CC=C5C[C@@H](N(C)C(=O)c6ccc(C#N)cc6)CC[C@]5(C)[C@H]4CC[C@]23CN1C
[1]
  Ki: 0.0398 µM
[2]; read-out: Ki
  Ki: 0.195 µM

## C[C@H]1[C@H]2CC[C@H]3[C@@H]4CC=C5C[C@@H](N(C)C(=O)Cc6cccs6)CC[C@]5(C)[C@H]4CC[C@]23CN1C
[1]
  Ki: 0.00331 µM
[34]
  bioavailability: 4.5%
[2]; read-out: Ki
  Ki: 0.0112 µM

## CCS(=O)(=O)N(C)[C@H]1CC[C@@]2(C)C(=CC[C@H]3[C@@H]4CC[C@@H]5[C@H](C)N(C)C[C@@]54CC[C@@H]32)C1
[1]
  Ki: 0.0234 µM
[2]; read-out: Ki
  Ki: 0.141 µM

## COc1ccc(C/C(=N\O)C(=O)NCCc2c[nH]cn2)cc1Br [VERONGAMINE]
[6]
  IC50: 0.83 µM

## CN1C[C@]23CC[C@H]4[C@@H](CC=C5C[C@@H](N(C)C)CC[C@@]54C)[C@@H]2CC[C@@H]3C1=O
[1]
  Ki: 0.543 µM
[11]; read-out: Ki
  Ki: 1 µM
